Assay [1] deals with copper complexes of Aβ1-42 peptide. Kind of assay: Stability of H2O2 during the H2O2 production inhibition experiments (known amount of H2O2 added). Type of assay: biochemical. The settings on record: for theoretical value of H2O2 if there is no degradation (in parentheses): ascorbate, ligand; for H2O2 assayed: no Aβ1-42, Cu(II) 0.4 μM, ligand 0.4 μM. As to the method:
(§1) The final concentrations are given. The reactions were carried out in the dark in mM sodium phosphate buffer (pH=7.4). Aβ1-42 (0.2 μM) and CuCl2 (0.4 μM) were pre-incubated for 1 hour at 37° C. while stirring at 1,400 rpm in 375 μl of buffer. Then 2 μl of a solution of ligand to be investigated (0.2; 0.4 or 0.8 μM) in DMSO were added. After incubation for a further hour, 2 μl of an aqueous sodium ascorbate solution (10 μM) were added and incubation was continued for 5 min while stirring. The amount of H2O2 produced is then quantified using an Amplex Red H2O2/HRP Assay Kit (Molecular Probes) while adding a volume of assay reagent to the samples, then incubating them for 1 hour at 37° C. while stirring at 500 rpm. H2O2 is then detected by spectrophotometry at 563 nm. Quantification is carried out on the basis of standard curves obtained with known amounts of H2O2.
(§2) Experiments were also carried out in the presence of a known amount of H2O2, added just before or just after the addition of sodium ascorbate, in order to investigate the stability of H2O2 under the experimental conditions employed.

Assay [2] has as its target T1, copper complexes of Aβ1-42 peptide (Homo sapiens, UniProt P05067).
T1 construct: The β-amyloid peptide Aβ1-42 (Aβ1-42) was synthesised, purified (to a purity greater than 95%); made in house; host or cells: chemical peptide synthesis (no expression host)
The description is as above. The assay is classed as biochemical. The settings on record: Aβ1-42 0.2 μM, Cu(II) 0.4 μM, ascorbate 10 μM, ligand 0.4 μM. As to the method: as §1, §2

The target of another assay is T2, Aβ1-42 (Homo sapiens, UniProt P05067).
T2 construct: The β-amyloid peptide Aβ1-42 (Aβ1-42) was synthesised, purified (to a purity greater than 95%); made in house; host or cells: chemical peptide synthesis (no expression host)
T2 sequence (P05067 672-713): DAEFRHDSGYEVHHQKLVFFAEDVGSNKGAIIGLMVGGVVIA
As to the kind of experiment: Inhibition of the precipitation of Aβ1-42 by the addition of ligand (Micro BCA assay of soluble/aggregated peptide). The assay is classed as biochemical. The settings on record: Aβ1-42 5 μM, pH 7.4; for CuCl2 % soluble Aβ: 20 μM CuCl2, 1 h 37° C. then 1 h with 200 μM ligand; for FeCl3 % soluble Aβ: 20 μM FeCl3, 1 h 37° C. then 1 h with 200 μM ligand; for ZnCl2 % soluble Aβ: 20 μM ZnCl2, 1 h 37° C. then 1 h with 200 μM ligand; for without metal % soluble Aβ: no metal salt, 1 h 37° C. then 1 h with 200 μM ligand. The procedure, abridged: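 Aβ1-42 (5 μM) pre-aggregated 1 h at 37 °C with stirring in 20 mM Tris-HCl/150 mM NaCl pH 7.4, with or without CuCl2, ZnCl2 or FeCl3 (20 μM). Ligand (200 μM, DMSO) added, 1 further hour at 37 °C; after centrifugation, peptide in supernatant and pellet quantified by Micro BCA against BSA standards.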

A short description of assay [3]: Competition reaction between ligand (Ls), CuCl2 and competing chelator (Lc), UV-visible; affinity constants. The following applies: for % MLs: Cu(II), EDTA as Lc, 1/1/1 at 15 μM; for number of Lc equivalents making it possible to form 50% of CuLs, Lc = EDTA: mixture of Ls (15 μM, 1 equivalent) and CuCl2 (1/1, mol/mol).
Assay [4] can be described thus: UV-visible spectrophotometric titration with CuCl2 (metal/ligand stoichiometry). Type of assay: binding. The following applies: 15 μM ligand; Tris-HCl buffer pH 7.4/organic solvent, per ligand as in Table 3 column Solvent.
Where [5] appears, read: Aβ1-42 0.2 μM, Cu(II), 3.0 nanomoles H2O2 added just after ascorbate.
The mark [6] stands for this setting: 3.0 nanomoles H2O2 added just after ascorbate.
Where [7] appears, read: Ls/CuCl2/Lc 1/1/1 at 15 μM, solvent per ligand as in Table 3.

T1 sequence (P05067 672-713 limits assumed, one chain of several): as the sequence (P05067 672-713) above

For the compound `CC(C)(c1ccc2cccc(O)c2n1)c1ccc2cccc(O)c2n1` [Compound 3, 2,2′-(2,2-propanediyl)-bis(8-hydroxyquinoline)], the “theoretical value of H2O2 if there is no degradation (in parentheses)” value in assay [1] (setting [5]) is given as 3.7 (3.7) nanomoles. Also, in assay [1] (Aβ1-42 0.2 μM, Cu(II), 3.0 nanomoles H2O2 added just before the ascorbate), the “theoretical value of H2O2 if there is no degradation (in parentheses)” value came out at 3.7 nmol. Also, in assay [1] (ascorbate 10 μM, 3.0 nanomoles H2O2 added just after ascorbate), the H2O2 assayed is given as 3.8 (3.8) nanomoles. This compound displayed an H2O2 assayed in assay [1] (ascorbate 10 μM, no H2O2 added) of 0.84 nmol. Also, the H2O2 assayed in assay [1] (no ascorbate, 3.0 nanomoles H2O2 added) was determined as 3.1 nmol. In assay [1] (no Aβ1-42, Cu(II), 3.0 nanomoles H2O2 added just after ascorbate), the “theoretical value of H2O2 if there is no degradation (in parentheses)” value was 3.8 (3.8) nanomoles. Besides, the H2O2 assayed in assay [2] (setting [6]) is listed as 3.7 (3.7) nanomoles. This compound registered an H2O2 assayed in assay [2] (3.0 nanomoles H2O2 added just before the ascorbate) of 3.8 nmol. The H2O2 assayed in assay [2] (no H2O2 added) came out at 0.71 ± 0.02 nmol. Moreover, at Aβ1-42, the “CuCl2 % soluble Aβ” value is reported as 47 ± 3%, the “FeCl3 % soluble Aβ” value is 60%, the “ZnCl2 % soluble Aβ” value is recorded as 59% and the “without metal % soluble Aβ” value stood at 56%. In assay [3] (Buffer/CH3OH (1/1)), the “% MLs” value came to 50%. For the same compound, the “% MLs” value in assay [3] (Buffer/DMSO (2/8)) was 55%. Further, the “% MLs” value in assay [3] (Buffer/dioxane (1/1)) turned out to be 45%. Further, in assay [3] (setting [7]), the “percentage of the CuLs species at equilibrium, competing ligand CTDA” value stood at 15%; the “percentage of the CuLs species at equilibrium, competing ligand EDA” value is reported as 100%; the “percentage of the CuLs species at equilibrium, competing ligand EDDA” value is given as 100%; the “percentage of the CuLs species at equilibrium, competing ligand EDTA” value (shortened to “percentage … competing ligand EDTA”) amounted to 50%. For the same compound, in assay [3] (setting [7]), the “percentage of the CuLs species at equilibrium, competing ligand HIDA” value stood at 100%; the “percentage of the CuLs species at equilibrium, competing ligand Tetren” value turned out to be 0%; the “percentage of the CuLs species at equilibrium, competing ligand Trien” value was found to be 30%; the “percentage of the CuLs species at equilibrium, competing ligand biPy” value was determined as 100%. Besides, the “number of Lc equivalents making it possible to form 50% of CuLs, Lc = EDTA” value in assay [3] came out at 1 eq.
As for `CC(C)(c1ccc2c(Cl)ccc(O)c2n1)c1ccc2c(Cl)ccc(O)c2n1` [Compound 4, 2,2′-(2,2-Propanediyl)-bis(5-chloro-8-hydroxyquinoline)], in assay [1] (setting [5]), the “theoretical value of H2O2 if there is no degradation (in parentheses)” value was found to be 3.4 nmol. Also, the H2O2 assayed in assay [2] (setting [6]) came out at 3.3 nmol. This compound came in with an H2O2 assayed in assay [2] (no H2O2 added) of 0.37 ± 0.09 nmol. Also, at Aβ1-42, the “CuCl2 % soluble Aβ” value came to 30%, the “FeCl3 % soluble Aβ” value is given as 45%, the “ZnCl2 % soluble Aβ” value is reported as 49% and the “without metal % soluble Aβ” value was determined as 55%. Further, the “Complex observed by titration with Cu^II (observed L/Cu(II) stoichiometry)” value (from here on “Complex observed by titration with Cu^II”) in assay [4] is on record as “Cu^II(1/1)”. Besides, in assay [3] (setting [7]), the “percentage of the CuLs species at equilibrium, competing ligand EDDA” value worked out at 90%; the “percentage … competing ligand EDTA” value is 40%; the “percentage of the CuLs species at equilibrium, competing ligand HIDA” value came to 100%. For the same compound, in assay [3], the “number of Lc equivalents making it possible to form 50% of CuLs, Lc = EDTA” value is 0.65 eq.
Regarding `Oc1cccc2ccc(C(F)(F)c3ccc4cccc(O)c4n3)nc12` [Compound 5, 2,2′-(Difluoromethanediyl)-bis(8-hydroxyquinoline)], the “theoretical value of H2O2 if there is no degradation (in parentheses)” value in assay [1] (setting [5]) was found to be 3.5 nmol. Also, the H2O2 assayed in assay [2] (setting [6]) was found to be 3.4 nmol. In assay [2] (no H2O2 added), this compound returned an H2O2 assayed of 0.55 ± 0.08 nmol. Also, on Aβ1-42, the “CuCl2 % soluble Aβ” value was determined as 51 ± 1%, the “FeCl3 % soluble Aβ” value was determined as 52%, the “ZnCl2 % soluble Aβ” value turned out to be 50% and the “without metal % soluble Aβ” value is recorded as 60%. Further, the “Complex observed by titration with Cu^II” value in assay [4] was “LCu^II(1/1)”. Also, the “percentage … competing ligand EDTA” value in assay [3] (setting [7]) is listed as 45%.
As to `O=C(c1ccc2cccc(O)c2n1)c1ccc2cccc(O)c2n1` [Compound 6, Bis(8-hydroxy-2-quinoline)methanone], the “theoretical value of H2O2 if there is no degradation (in parentheses)” value in assay [1] (setting [5]) came out at 3.9 nmol. The H2O2 assayed in assay [2] (setting [6]) came to 3.6 nmol. Besides, the H2O2 assayed in assay [2] (no H2O2 added) was 0.87 ± 0.11 nmol. For the same compound, at Aβ1-42, the “CuCl2 % soluble Aβ” value was determined as 58 ± 3%, the “FeCl3 % soluble Aβ” value was determined as 51%, the “ZnCl2 % soluble Aβ” value worked out at 54% and the “without metal % soluble Aβ” value is recorded as 56%. For the same compound, in assay [4], the “Complex observed by titration with Cu^II” value is given as “LCu^II(1/1)”. Further, the “percentage … competing ligand EDTA” value in assay [3] (setting [7]) is given as 75%.
Regarding `c1cnc2c(Nc3cccc4cccnc34)cccc2c1` [Compound 12, Bis(8-quinoline)amine], in assay [1] (setting [5]), the “theoretical value of H2O2 if there is no degradation (in parentheses)” value turned out to be 3.4 nmol. Also, in assay [1] (Table 7 conditions), the “degradation of added H2O2” value was “none of the added H2O2 is found again”. The same compound yielded an H2O2 assayed in assay [2] (setting [6]) of 1.7 nmol. Moreover, the H2O2 assayed in assay [2] (no H2O2 added) was 0.47 ± 0.09 nmol. At Aβ1-42, the “CuCl2 % soluble Aβ” value was 69 ± 2%, the “FeCl3 % soluble Aβ” value was found to be 59%, the “ZnCl2 % soluble Aβ” value came to 52% and the “without metal % soluble Aβ” value is 69%. Besides, the “Complex observed by titration with Cu^II” value in assay [4] is “LCu^II(1/1)”. Besides, the “percentage … competing ligand EDTA” value in assay [3] (setting [7]) is reported as 55%.
